Columns and labels:
HCT-116 xenografts = experiment: Subcutaneous colon cancer xenograft in athymic mice; type: in vivo
Protocol: DLD-1, HCT-116, and HT-29 cells were cultured for 6 days in soft agar in the presence of DMSO (control), 10 μM BAY 11-7082, or 10 μM BAY 11-7085. The data points represent the means of colony counts per field (20×) performed in 5 different regions of the culture dishes. The data shown represent a typical result of two separate experiments. FIGS. 2B,C, show athymic mice received subcutaneous injections of HT-29 (B) or HCT-116 (C) cells, followed by […] of BAY 11-7085 (dark bars) or DMSO (white bars) intraperitoneally twice weekly. The bars represent the 25-75% ranges of the tumor volumes and the horizontal lines in the bars are the medians. Using the Kruskal-Wallace statistical test to compare the median tumor volumes between BAY 11-7085 and DMSO yielded a p-value of 0.005 for HT-29 cells but >0.05 for HCT-116 cells.
HT-29 and HCT-116 cells were harvested in 0.25% trypsin-PBS-EDTA, washed once in media and PBS, and resuspended in PBS at 1 million cells per 200 μL. One million cells were injected either subcutaneously in the backs or intraperitoneally in 5 week old female nu/nu athymic mice (Charles River Labs). For the mice with subcutaneous tumors, the tumors were allowed to establish themselves for 10 days after which they were randomized to BAY 11-7085 or DMSO. For the mice with intraperitoneal tumors, the mice received DMSO or BAY 11-7085 (5 mg/kg) 24 hours before the cancer cells were injected intrapentoneally. All mice received BAY 11-7085 (5 mg/kg) or an equal volume of DMSO (˜200 μL) twice weekly for 21-32 days. Subcutaneous tumor sizes were determined by measuring the length and width with calipers. These studies were approved by the U. of Utah Institutional Review Board and Institutional Animal Care and Use Committee and performed in the Animal Resource Center. Mice were euthanized when they experienced a greater than 10% loss in body weight or if they appeared ill. Post-mortem examinations included sectioning of kidney, lung, and liver tissues which were stained with hematoxylin and eosin followed by examination for tissue toxicity/damage by an experienced mouse pathologist (E.J.E.) who was blinded to therapy.
(Wang et al., 1999) However, BAY 11-7082 or BAY 11-7085 alone inhibit colon cancer xenograft growth in athymic mice. HC-116, and HT-29 cell lines were used to generate subcutaneous tumors in athymic female mice. The mice were subsequently randomized to be treated with vehicle (DMSO) alone or BAY 11-7085 1 mg/kg twice weekly for 28 days.

HT-29 cells = experiment: One-hour cell adhesion assay (crystal violet); type: cell-based; conditions: HT-29 pretreated three days (3 hours elsewhere in the source) with various concentrations
Protocol: The data points represent the average percent of annexin V-positive, propidium iodide-negative cells (of the total cells counted) from triplicate experiments. The error bars represent the standard error of the means. […] The results shown are a graphic representation of individual flow cytometry results expressed as the percentage of cells that were annexin V-positive of those that excluded propidium iodide. […] An immunoblot of the lysates for cleaved PARP was performed. Each lane represents equal total protein concentrations. […] The cells were allowed to adhere to plastic dishes for 1 hour after which they were washed gently in PBS and stained with crystal violet. The crystal violet stained cells were solubilized in deoxycholate and the absorbance detected in a spectrophotometer at 590 nm. The adherent cells were expressed as a fraction of the controls Each data point represents the average of triplicate experiments and the error bars the standard errors of the means.
Even though BAY 11-7085 induced a loss of cell adhesion, it was important to show whether HT-29 cells were actually susceptible to anoikis.

293-COX-2 cells = experiment: Apoptosis of 293 cells with ponasterone-inducible COX-2; type: cell-based; conditions: 8 hours
Protocol: The transiently suspended cells were lysed and allowed to bind to DNA oligonucleotides, containing the NF-κB consensus binding site, that were immobilized to 96-well plates. NF-κB protein bound to the oligonucleotides was detected by an antibody to the p65 subunit that only recognized p65 that is bound to DNA. The positive control was HeLa cells that were stimulated with TNFα A control was performed using excess free NF-κB oligonucleotides (Competitor). […] NF-κB binding activity was determined by the TransAM assay as in FIG. 5A. […] The data shown represent typical results of three separate experiments. […] An immunoblot for COX-2 was performed.
DLD-1, HCT-116, and HT-29 colon cancer cell lines were obtained from the ATCC collection and were cultured in Dulbecco's Modification of Eagle's Medium supplemented with 10% fetal bovine serum, glutamine, penicillin, and streptomycin. […]
Single cell suspensions were plated at 100,000 cells per well in 24-well plates in media containing DMSO, BAY 11-7082, BAY 11-7085, or MG-132 for 8-24 hours in an incubator. […] 400 μl of binding buffer was added to each tube and the cells were analyzed by flow cytometry immediately. The percent of apoptosis was determined as the percent of annexin V-positive, propidium iodide-negative cells of the total cells counted. […]

CC(C)(C)c1ccc(S(=O)(=O)/C=C/C#N)cc1 [BAY 11-7085, (2E)-3-[4-(tertiarybutylphenyl)sulfonyl]-2-propenenitrile]
p-value, Kruskal-Wallace test of median tumor volumes vs DMSO (HCT-116 xenografts; HCT-116, intraperitoneally twice weekly): > 0.05 | tumor volumes, treatment group compared with control group (HCT-116 xenografts; HCT-116 subcutaneous tumors, 1 mg/kg twice weekly for 28 days, vs DMSO): no statistically significant overall difference in the tumor volumes | inhibition of cell adhesion (HT-29 cells): significant and rapid inhibition of cell adhesion at high concentrations | apoptosis following treatment (293-COX-2 cells; ponasterone-induced (1 μg/ml, 48 hours) 293-COX-2 cells): marked increase in BAY 11-7085-induced apoptosis | apoptosis following treatment (293-COX-2 cells; uninduced 293-COX-2 cells): no increase in apoptosis

Source: patent US7989495B2, “Compositions and methods for inhibiting NF-κB mediated tumorigenicity and adhesion dependent survival of cancer cells” (University of Utah Research Foundation, priority 2002, dated 2011)
